Results: patent publication US20240277637A1, “CAPSAICIN DERIVATIVES IN THE TREATMENT OF IDIOPATHIC PULMONARY FIBROSIS” (aXichem AB, priority 2021, published 2024)
Like-named read-outs stand apart in the source and are kept apart here.

System: human bronchial epithelial cells
Test: Proliferation assay, PDGF-stimulated bronchial epithelial proliferation (Example 2)
Format: cell-based
Settings: for IC50: Homo sapiens, Epithelial cell, 10 ng/ml PDGF, 72 hours
Experimental: Primary isolated human bronchial epithelial cells (NHBE) (Normal, Human (ATCC® BEAS-2B™)) were cultured up to passage 6. […].
Bronchial cells were harvested by trypsinisation at 37° C. and neutralised with trypsin-neutralising solution. A suspension of 50,000 cells in MPM/DMEM was added to 25 ml flasks. The cells were incubated with phenylcapsaicin or SU9518 for 1 hour in cytokine-free medium at standard conditions and incubated for another 72 hours in the presence of final mediums (either with 10 ng/ml PDGF-AB+4 ng/ml FN, or with 2 ng/ml VEGF+4 ng/ml bFGF+4 ng/ml FN). The cells were then dispersed in trypsin, resuspended, and counted in a coulter counter.

Compound: COc1cc(CNC(=O)CCCCC#Cc2ccccc2)ccc1O [Compound 2, N-(4-hydroxy-3-methoxybenzyl)-7-phenylhept-6-ynamide]
- IC50 (read-out: IC50, PDGF-induced epithelial proliferation): ~1000 nM
- IC50 (read-out: IC50, PDGF-induced proliferation): ~2000 nM
- selectivity for PDGF pathway (PDGF- versus VEGF+bFGF-induced proliferation, bronchial cells): work selectively on the PDGF pathway, although at a lower selectivity than in corneal cells
